# How the values were obtained:
# cardiac myocytes = test: Endomyocardial biopsy of patient on hydroxychloroquine; type: in vivo, human; settings: same patient
# Description: An endomyocardial biopsy was performed on the same subject. […] Amyloid was not present on special stains, including sulfated Alcian blue stain and Congo red stains (C of FIG. 4 and D of FIG. 4, respectively, ×100 original magnification).
# Description for heart: Planar scintigraphy (D of FIG. 3) of ^99mTc-PYP uptake allows count comparison between the heart (right) with the contralateral chest (left) on 3-hour uptake anterior planar imaging.
smiles,measurement,setting,value
CCN(CCO)CCCC(C)Nc1ccnc2cc(Cl)ccc12 (stereo not drawn) [hydroxychloroquine],left ventricular wall finding on echocardiogram,"heart; human, in vivo",concentric left ventricular wall thickening
same,global averaged longitudinal peak systolic strain,"heart; patient on hydroxychloroquine for 15 years, abnormal, most preserved at the apex",−10%
same,hematoxylin and eosin-stained section finding,cardiac myocytes; light microscopy,marked sarcoplasmic vacuolization of cardiac myocytes
same,toluidine blue-stained thick section finding,cardiac myocytes,dense sarcoplasmic inclusions
same,electron microscopy finding,cardiac myocytes; in keeping with hydroxychloroquine-mediated cardiotoxicity,presence of myelinoid and curvilinear bodies
same,amyloid on special stains,cardiac myocytes; sulfated Alcian blue and Congo red stains,not present

# Source: patent US20200046860A1, “Systems and Methods for the Detection of Hydroxychloroquine-Mediated Cardiotoxicity” (Mayo Foundation for Medical Education and Research, priority 2018, published 2020)
